In patent publication US20230407243A1, “GENETIC PLATFORM TO INVESTIGATE THE FUNCTIONS OF BACTERIAL DRUG EFFLUX PUMPS” (priority 2022, published 2023):

Experiments:
Type in all cases: cell-based, Escherichia coli
EKO-35 araC::acrBD408A = assay: MIC susceptibility profiling, efflux platform; settings: for Fold change of MICs: EKO-35 araC::acrBD408A compared to EKO-35; for Minimum Inhibitory Concentration, EKO-35 araC::acrBD408A: Table 13B, non-porinated, technical duplicate
How it was run: (§1)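 Turbidity (OD600, pre-incubation subtracted) defined growth after 18 h at 37 °C in MHB II. The inoculum was diluted 1/2000 from an OD600 ~1.0 PBS suspension of an overnight LB culture. Compounds were run as duplicate twofold dilutions.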

EKO-35 araC::acrB = assay: MIC susceptibility profiling, efflux platform; settings: for Fold change of MICs: EKO-35 araC::acrB compared to EKO-35; for Minimum Inhibitory Concentration, EKO-35 araC::acrB: Table 13A, non-porinated, technical duplicate
How it was run: as §1

EKO-35 araC::acrD = assay: MIC susceptibility profiling, efflux platform; settings: for Fold change of MICs: EKO-35 araC::acrD compared to EKO-35; for Minimum Inhibitory Concentration, EKO-35 araC::acrD: Table 13A, non-porinated, technical duplicate
How it was run: as §1

EKO-35 araC::acrEF = assay: MIC susceptibility profiling, efflux platform; settings: for Fold change of MICs: EKO-35 araC::acrEF compared to EKO-35; for Minimum Inhibitory Concentration, EKO-35 araC::acrEF: Table 13A, non-porinated, technical duplicate
How it was run: as §1

EKO-35 araC::emrAB = assay: MIC susceptibility profiling, efflux platform; settings: for Fold change of MICs: EKO-35 araC::emrAB compared to EKO-35; for Minimum Inhibitory Concentration, EKO-35 araC::emrAB: Table 13B, non-porinated, technical duplicate
How it was run: as §1

EKO-35 araC::emrKY = assay: MIC susceptibility profiling, efflux platform; settings: for Fold change of MICs: EKO-35 araC::emrKY compared to EKO-35; for Minimum Inhibitory Concentration, EKO-35 araC::emrKY: Table 13B, non-porinated, technical duplicate
How it was run: as §1

EKO-35 araC::macAB = assay: MIC susceptibility profiling, efflux platform; settings: for Fold change of MICs: EKO-35 araC::macAB compared to EKO-35; for Minimum Inhibitory Concentration, EKO-35 araC::macAB: Table 13B, non-porinated, technical duplicate
How it was run: as §1

EKO-35 araC::mdtBC = assay: MIC susceptibility profiling, efflux platform; settings: for Fold change of MICs: EKO-35 araC::mdtBC compared to EKO-35; for Minimum Inhibitory Concentration, EKO-35 araC::mdtBC: Table 13B, non-porinated, technical duplicate
How it was run: as §1

EKO-35 araC::mdtEF = assay: MIC susceptibility profiling, efflux platform; settings: for Fold change of MICs: EKO-35 araC::mdtEF compared to EKO-35; for Minimum Inhibitory Concentration, EKO-35 araC::mdtEF: Table 13A, non-porinated, technical duplicate
How it was run: as §1

[1] = test system: EKO-35 araC::mexCD (MexCD from P. aeruginosa); assay: MIC susceptibility profiling, efflux platform; settings: for Fold change of MICs: EKO-35 araC::mexCD compared to EKO-35; for Minimum Inhibitory Concentration, EKO-35 araC::mexCD: Table 13B, non-porinated, technical duplicate
How it was run: as §1

wild-type (WT) K-12-Pore = assay: microbe, parasite or virus in culture; settings: technical duplicate; for Minimum inhibitory concentration (MIC), Pore K-12: Table 10, with pore; for Minimum inhibitory concentration, K-12 (WT)-Pore: Table 14A, porinated
How it was run: (§2)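 Strains carry the fhuA ΔC/Δ4L pore integrated between glmS and pstS under a constitutive promoter, with pore activity checked by vancomycin susceptibility. Overnight LB cultures were adjusted in PBS pH 7.4 to OD600 ~1.0 and diluted 1/2000 into MHB II. 2-fold compound titrations were read by OD600 after 18 h at 37 °C.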

ΔtolC-Pore = assay: microbe, parasite or virus in culture; settings: technical duplicate; for Minimum inhibitory concentration (MIC), Pore ΔtolC: Table 10, with pore; for Minimum inhibitory concentration, ΔtolC-Pore: Table 14A, porinated
How it was run: as §2

EKO-35-Pore = assay: MIC susceptibility profiling, porinated strain; settings: for Fold changes of MICs: EKO-35-Pore compared to EKO-35-Pore (reference); for Minimum inhibitory concentration (MIC), Pore EKO-35: Table 10, with pore; for Minimum inhibitory concentration (MIC), Pore EKO-35 / Minimum inhibitory concentration, EKO-35-Pore: technical duplicate; for Minimum inhibitory concentration, EKO-35-Pore: Table 14A, porinated
How it was run: as §2

EKO-35 araC::acrB Pore = assay: MIC susceptibility profiling, porinated efflux platform; settings: for Fold changes of MICs: EKO-35 araC::acr-B Pore compared to EKO-35-Pore; for Minimum inhibitory concentration, EKO-35 araC::acrB Pore: Table 14A, porinated, technical duplicate
How it was run: as §2

[2] = test system: EKO-35 araC::acrBD408A Pore; assay: as above; settings: for Fold changes of MICs: EKO-35 araC::acrBD408A Pore compared to EKO-35-Pore; for Minimum inhibitory concentration: EKO-35 araC::acrBD408A Pore, technical duplicate
How it was run: as §2

EKO-35 araC::acrD Pore = assay: as above; settings: for Fold changes of MICs: EKO-35 araC::acrD Pore compared to EKO-35-Pore; for Minimum inhibitory concentration, EKO-35 araC::acrD Pore: Table 14A, porinated, technical duplicate
How it was run: as §2

EKO-35 araC::acrEF Pore = assay: as above; settings: for Fold changes of MICs: EKO-35 araC::acrEF Pore compared to EKO-35-Pore; for Minimum inhibitory concentration, EKO-35 araC::acrEF Pore: Table 14A, porinated, technical duplicate
How it was run: as §2

EKO-35 araC::emrAB Pore = assay: as above; settings: for Fold changes of MICs: EKO-35 araC::emrAB Pore compared to EKO-35-Pore; for Minimum inhibitory concentration: EKO-35 araC::emrAB Pore, technical duplicate
How it was run: as §2

Row | Structure (SMILES) | Fold change of MICs (EKO-35 araC::acrBD408A) | Minimum Inhibitory Concentration, EKO-35 araC::acrBD408A (EKO-35 araC::acrBD408A) | Minimum Inhibitory Concentration, EKO-35 araC::acrB (EKO-35 araC::acrB) | Fold change of MICs (EKO-35 araC::acrD) | Minimum Inhibitory Concentration, EKO-35 araC::acrD (EKO-35 araC::acrD) | Fold change of MICs (EKO-35 araC::acrEF) | Minimum Inhibitory Concentration, EKO-35 araC::acrEF (EKO-35 araC::acrEF) | Fold change of MICs (EKO-35 araC::emrAB) | Minimum Inhibitory Concentration, EKO-35 araC::emrAB (EKO-35 araC::emrAB) | Fold change of MICs (EKO-35 araC::emrKY) | Minimum Inhibitory Concentration, EKO-35 araC::emrKY (EKO-35 araC::emrKY) | Fold change of MICs (EKO-35 araC::macAB) | Minimum Inhibitory Concentration, EKO-35 araC::macAB (EKO-35 araC::macAB) | Fold change of MICs (EKO-35 araC::mdtBC) | Minimum Inhibitory Concentration, EKO-35 araC::mdtBC (EKO-35 araC::mdtBC) | Fold change of MICs (EKO-35 araC::mdtEF) | Minimum Inhibitory Concentration, EKO-35 araC::mdtEF (EKO-35 araC::mdtEF) | Fold change of MICs [1] | Minimum Inhibitory Concentration, EKO-35 araC::mexCD [1] | Minimum inhibitory concentration (MIC), Pore K-12 (wild-type (WT) K-12-Pore) | other results
1 | O=C(Nc1ccccc1)Nc1ccc(Br)c(C(F)(F)F)c1 [compound 6] | 1 fold | 320 µg/mL | 320 µg/mL | 1 fold | 320 µg/mL | 1 fold | 320 µg/mL | 1 fold | 320 µg/mL | 1 fold | 320 µg/mL | 1 fold | 320 µg/mL | 1 fold | 320 µg/mL | 1 fold | 320 µg/mL | 1 fold | 320 µg/mL | 320 µg/mL | Fold change of MICs (EKO-35 araC::acrB): 1 fold; Minimum inhibitory concentration, K-12 (WT)-Pore (wild-type (WT) K-12-Pore): 320 µg/mL; Minimum inhibitory concentration (MIC), Pore ΔtolC (ΔtolC-Pore): 0.625 µg/mL; Minimum inhibitory concentration, ΔtolC-Pore (ΔtolC-Pore): 0.625 µg/mL; Fold changes of MICs (EKO-35-Pore): 1 fold; Minimum inhibitory concentration (MIC), Pore EKO-35 (EKO-35-Pore): 320 µg/mL; Minimum inhibitory concentration, EKO-35-Pore (EKO-35-Pore): 320 µg/mL; Fold changes of MICs (EKO-35 araC::acrB Pore): 1 fold; Minimum inhibitory concentration, EKO-35 araC::acrB Pore (EKO-35 araC::acrB Pore): 320 µg/mL; Fold changes of MICs [2]: 1 fold; Minimum inhibitory concentration [2]: 320 µg/mL; Fold changes of MICs (EKO-35 araC::acrD Pore): 1 fold; Minimum inhibitory concentration, EKO-35 araC::acrD Pore (EKO-35 araC::acrD Pore): 320 µg/mL; Fold changes of MICs (EKO-35 araC::acrEF Pore): 1 fold; Minimum inhibitory concentration, EKO-35 araC::acrEF Pore (EKO-35 araC::acrEF Pore): 320 µg/mL; Fold changes of MICs (EKO-35 araC::emrAB Pore): 1 fold; Minimum inhibitory concentration (EKO-35 araC::emrAB Pore): 320 µg/mL
2 | O=[N+]([O-])c1ccc2c(c1)C(=NO)c1cc([N+](=O)[O-])ccc1-2 [compound 11] | 1 fold | 0.078 µg/mL | 320 µg/mL | 8 fold | 0.625 µg/mL | 4096 fold | 320 µg/mL | 512 fold | 40 µg/mL | 1 fold | 0.078 µg/mL | 1 fold | 0.078 µg/mL | 1 fold | 0.078 µg/mL | 128 fold | 10 µg/mL | 16 fold | 1.25 µg/mL | 80 µg/mL | Minimum inhibitory concentration, K-12 (WT)-Pore (wild-type (WT) K-12-Pore): 80 µg/mL; Minimum inhibitory concentration (MIC), Pore ΔtolC (ΔtolC-Pore): 0.156 µg/mL; Minimum inhibitory concentration, ΔtolC-Pore (ΔtolC-Pore): 0.156 µg/mL; Fold changes of MICs (EKO-35-Pore): 1 fold; Minimum inhibitory concentration (MIC), Pore EKO-35 (EKO-35-Pore): 0.078 µg/mL; Minimum inhibitory concentration, EKO-35-Pore (EKO-35-Pore): 0.078 µg/mL; Fold changes of MICs (EKO-35 araC::acrB Pore): 1024 fold; Minimum inhibitory concentration, EKO-35 araC::acrB Pore (EKO-35 araC::acrB Pore): 80 µg/mL; Fold changes of MICs [2]: 1 fold; Minimum inhibitory concentration [2]: 0.078 µg/mL; Fold changes of MICs (EKO-35 araC::acrD Pore): 4 fold; Minimum inhibitory concentration, EKO-35 araC::acrD Pore (EKO-35 araC::acrD Pore): 0.313 µg/mL; Minimum inhibitory concentration, EKO-35 araC::acrEF Pore (EKO-35 araC::acrEF Pore): 80 µg/mL; Fold changes of MICs (EKO-35 araC::emrAB Pore): 16 fold; Minimum inhibitory concentration (EKO-35 araC::emrAB Pore): 1.25 µg/mL
3 | N#CC(=NNc1cccc(C(F)(F)F)c1)C(=O)c1ccsc1 [compound 3] | 1 fold | 320 µg/mL | 320 µg/mL | 1 fold | 320 µg/mL | 1 fold | 320 µg/mL | 1 fold | 320 µg/mL | 1 fold | 320 µg/mL | 1 fold | 320 µg/mL | 1 fold | 320 µg/mL | 1 fold | 320 µg/mL | 1 fold | 320 µg/mL | 320 µg/mL | Fold change of MICs (EKO-35 araC::acrB): 1 fold; Minimum inhibitory concentration, K-12 (WT)-Pore (wild-type (WT) K-12-Pore): 320 µg/mL; Minimum inhibitory concentration (MIC), Pore ΔtolC (ΔtolC-Pore): 1.25 µg/mL; Minimum inhibitory concentration, ΔtolC-Pore (ΔtolC-Pore): 1.25 µg/mL; Fold changes of MICs (EKO-35-Pore): 1 fold; Minimum inhibitory concentration (MIC), Pore EKO-35 (EKO-35-Pore): 320 µg/mL; Minimum inhibitory concentration, EKO-35-Pore (EKO-35-Pore): 320 µg/mL; Fold changes of MICs (EKO-35 araC::acrB Pore): 1 fold; Minimum inhibitory concentration, EKO-35 araC::acrB Pore (EKO-35 araC::acrB Pore): 320 µg/mL; Fold changes of MICs [2]: 1 fold; Minimum inhibitory concentration [2]: 320 µg/mL; Fold changes of MICs (EKO-35 araC::acrD Pore): 1 fold; Minimum inhibitory concentration, EKO-35 araC::acrD Pore (EKO-35 araC::acrD Pore): 320 µg/mL; Fold changes of MICs (EKO-35 araC::acrEF Pore): 1 fold; Minimum inhibitory concentration, EKO-35 araC::acrEF Pore (EKO-35 araC::acrEF Pore): 320 µg/mL; Fold changes of MICs (EKO-35 araC::emrAB Pore): 1 fold; Minimum inhibitory concentration (EKO-35 araC::emrAB Pore): 320 µg/mL
